In patent US10246425B2, “3,5-diamino-6-chloro-N-(N-(4-phenylbutyl)carbamimidoyl) pyrazine-2-carboxamide compounds” (Parion Sciences, Inc., priority 2012, dated 2019):

Columns and labels:
Primary CBE cells = assay: Airway hydration and sodium channel block (in vitro model): surface liquid retention; format: cell-based, canine; conditions: for surface liquid retained on apical surface (% initial volume): 50 μl buffer, 10 μM
Description: Assay 4. Airway Hydration and Sodium Channel Block (In Vitro Model)
Primary CBE cells are plated onto collagen-coated, porous membranes maintained at an air-liquid interface to assess maintenance of surface liquid volume over time. At the start of the experiment, each 12 mm snapwell insert was removed from the plate containing air-liquid interface culture media, blotted dry, weighed, and 50 μL of vehicle (0.1% DMSO), or ENaC blocker (10 μM in 0.1% DMSO) applied to the apical surface and the mass was recorded. The inserts were immediately returned to a transwell plate (500 μL, Krebs Ringer Bicarbonate (KRB), pH 7.4 in lower chamber) and placed in a 37° C., 5% CO2 incubator. To reduce artifact due to an apical carbohydrate osmotic gradient upon water loss, glucose was not included in the apical buffer. Compound (1a) was tested and compared to vehicle, and the mass of ASL was monitored serially from 0-8 or 24 h. The mass of surface liquid was converted to volume in μL. Data are reported as % initial volume (100%=50 μL).
The duration of sodium transport inhibition was determined indirectly by measuring the buffer retained after a 50 μl volume of experimental buffer was added to the apical surface of CBE cells.

sheep = assay: Mucociliary clearance (MCC) studies in sheep; format: in vivo
Excerpt: Assay 2. Mucociliary Clearance (MCC) Studies in Sheep

[1] = system: human bronchial epithelial (HBE) cells; assay: Airway surface liquid drug (ASL) clearance and metabolism by human airway epithelium; format: in vitro ADME; conditions: for % of Apical Mass as Metabolites (2 h) / % of Initial Apical Mass on Basolateral Side (2 h) / % on Basolateral Side as Metabolites (2 h): 25 μL of 25 μM apical
Description: Assay 3. Airway Surface Liquid Drug (ASL) Clearance and Metabolism by Human Airway Epithelium
(§1) The disappearance of Compound II-d from the apical surface and airway epithelial metabolism were assessed in human bronchial epithelial (HBE) cells (Table 3). In these experiments 25 μL of a 25 μM solution of ENaC blocker was added to the apical surface of HBE cells grown at an air/liquid interface, and the drug concentration in the apical and basolateral compartment was measured over 2 h by UPLC.
as §1, with “Therefore, the compounds of Formula (A) have a longer half-life on mucosal surfaces compared to these know compounds as evidenced by the data shown in Table 4. The” for “The”, “HBE and compared to Comparative Example 1” for “human bronchial epithelial (HBE) cells”, “4).” for “3).”

[2] = Plasma potassium in sheep of the MCC study (marker for hyperkalemia)
Description: The animal model that has been used most often to measure changes in MCC is the sheep model. The effect of compounds for enhancing mucociliary clearance (MCC) can be measured using an in vivo model described by Sabater et al., Journal of Applied Physiology, 1999, pp. 2191-2196, incorporated herein by reference. In these studies, adult sheep were restrained and nasally intubated with an endotracheal tube. Aerosolized test articles were administered over 10-15 minutes to sheep. Radiolabeled ^99mTc-sulfur colloid (TSC, 3.1 mg/mL; containing approximately 20 mCi) was then administered at a specified time four or eight hours after test article. The radiolabeled aerosol was administered through the endotracheal tube for about 5 minutes. The sheep were then extubated, and total radioactive counts in the lung were measured every 5 minutes for a 1-hour observation period. The rate of radiolabel clearance from the lung is representative of the MCC rate in the animal. The advantage of this system is that it closely simulates the human lung environment. The model also allows for the collection of simultaneous PK/PD information through plasma and urine sampling over the test period. There are also several techniques to measure the drug concentrations on the airway surface during the MCC measurements. These include the collection of exhaled breath condensates or a filter paper method to obtain ASL via bronchoscopy.
The ovine model described above was used to evaluate the in vivo effects (efficacy/durability) of aerosol-delivered Compound II-d on MCC. Treatments consisting of either 4 mL of Compound II-d, Comparative Example 1, (S)-3,5-diamino-6-chloro-N—(N-(4-(4-(2,3-diamino-3-oxopropoxy)phenyl)butyl)carbamimidoyl)pyrazine-2-carboxamide, vehicle (sterile distilled H2O), or test agent in combination with HS were tested. To determine if combining HS with Compound II-d MCC, HS was administered immediately following Compound II-d administration. […] Radioactive counts were measured in a central region in the right lung at 5 min intervals for one hour with a gamma camera. […]

[3] = Table 5: sheep MCC 4 h post-dose, 24 nmol/kg (300 μM)
[4] = Table 5: sheep MCC 4 h post-dose, 240 nmol/kg (3 mM)
[5] = Table 4: HBE cells, 2 h, mean ± SD
[6] = Table 4: HBE cells, 2 h, parent only
[7] = Table 5: sheep MCC 4 h post-dose, 0.024 nmol/kg (300 nM)
[8] = sheep MCC 4 h post-dose, 0.024 nmol/kg (300 nM) aerosol, mean ± SD (n)
[9] = sheep MCC 4 h post-dose, 0.24 nmol/kg (3 μM) aerosol, mean ± SD (n)
[10] = HBE cells, 2 h incubation on the apical surface (37° C.), UPLC

## N=C(N)NC(=O)c1nc(Cl)c(N)nc1N [Amiloride, amiloride, reference compound]
Primary CBE cells; 8 hours
  surface liquid retained on apical surface (% initial volume): 25±19.2%

## N=C(NCCCCc1ccc(OC[C@H](N)C(N)=O)cc1)NC(=O)c1nc(Cl)c(N)nc1N [Comparative Example 1, (S)-3,5-diamino-6-chloro-N—(N-(4-(4-(2,3-diamino-3-oxopropoxy)phenyl)butyl)carbamimidoyl)pyrazine-2-carboxamide, reference compound]
sheep; Ovis aries, sheep MCC 4 h post-dose, slope, AUC and Maximum Clearance, read-out: ED50 in the sheep MCC model
  ED50: ~0.24 µmol/kg
sheep; [3]
  AUC (% CI × h): 6.9 ± 1.0 (3) % CI × h
  Initial Slope (4.0-4.5 h): 14.5 ± 1.3 (3)
sheep; [4]
  AUC (% CI × h): 14.1 ± 2.2 (6) % CI × h
  Initial Slope (4.0-4.5 h): 32.2 ± 7.3 (6)
sheep; sheep
  MCC Highest Submaximal Dose: 3 mM
sheep; sheep MCC 4 h post-dose
  ED50 in the sheep MCC model (concentration of dosing solution): ~3000 µM
[1]; HBE cells, 2 h
  elimination from the apical side: most of Comparative Example 1 was eliminated from the apical side
[1]; HBE cells, 2 h, apical side
  metabolized to the less active carboxylic acid: 83%
[1]; [5]
  % of Apical Mass as Metabolites (2 h): 83.0 ± 3.5%
  % of Initial Apical Mass on Basolateral Side (2 h): 8.3 ± 0.2^ %
  % on Basolateral Side as Metabolites (2 h): 94.7 ± 1.0%
[1]; [6]
  % of Initial Apical Mass on Basolateral Side as Parent (2 h): (1% Parent)
  % of Initial Drug Mass on Apical Side as Parent (2 h): (8% Parent)
[2]
  Top Dose in Sheep with no Elevation of Plasma Potassium: 300 µM

## N=C(NCCCCc1ccc(CC[C@H](NCCCN(C[C@H](O)[C@@H](O)[C@H](O)[C@H](O)CO)C[C@H](O)[C@@H](O)[C@H](O)[C@H](O)CO)C(N)=O)cc1)NC(=O)c1nc(Cl)c(N)nc1N [II-d, 3,5-diamino-N—(N-(4-(4-((S)-4-amino-3-(3-(bis((2S,3R,4R,5R)-2,3,4,5,6-pentahydroxyhexyl)amino)propylamino)-4-oxobutyl)phenyl)butyl)carbamimidoyl)-6-chloropyrazine-2-carboxamide]
sheep; [7]
  AUC (% CI × h): 11.5 ± 0.9 (4) % CI × h
  Initial Slope (4.0-4.5 h): 26.5 ± 1.4 (4)
sheep; sheep
  MCC Highest Submaximal Dose: 0.0003 mM
sheep; sheep MCC 4 hours post-dose
  potency in sheep MCC relative to Comparative Example 1 (fold lower dose / times more potent): 10,000
sheep; [8]
  AUC (% CI - h): 11.5 ± 0.9 (4) % CI - h
  Initial Slope (4.0-4.5 h): 26.5 ± 1.4 (4)
sheep; [9]
  AUC (% CI - h): 19.8 ± 1.4 (4) % CI - h
  Initial Slope (4.0-4.5 h): 41.9 ± 3.7 (4)
sheep; sheep MCC four hour post-dosing
  ED50 dose: approximately 0.024 nmo/kg
sheep; sheep MCC, clinically relevant dose range
  percentage mucus clearance over time (FIG. 6): maximal effect
sheep; sheep, 0.24 nmol/kg dose
  MCC effect at the top of the dose response curve: maximum (100%) MCC effect
sheep; sheep, four hour post-dosing, all doses tested (0.024, 0.24 and 2.4 nmol/kg)
  effect on MCC compared to vehicle control: enhanced MCC compared to vehicle control
Primary CBE cells; 8 hours
  surface liquid retained on apical surface (% initial volume): 112±11%
Primary CBE cells; 24 hours
  surface liquid retained on apical surface (% initial volume): 70.6±8.0%
  loss of surface liquid relative to the 8-hour measure: 16%
[1]; [10]
  compound detectable on the basolateral side: no Compound II-d was detectable on the basolateral side
  metabolites on the apical or basolateral sides: no metabolites were detected
[1]; Table 3: HBE cells, 2 h
  % of Apical Mass as Metabolites (2 h): None
  % on Basolateral Side as Metabolites (2 h): None
[1]; Table 3: HBE cells, 2 h, mean ± SD
  % of Initial Apical Mass on Basolateral Side (2 h): 1.6 ± 0.15%
[1]; [5]
  % of Apical Mass as Metabolites (2 h): None
  % of Initial Apical Mass on Basolateral Side (2 h): 1.6 ± 0.15%
  % on Basolateral Side as Metabolites (2 h): None
[2]
  Therapeutic Index, times greater renal safety than Comparative Example 1: 10,000-100,000
  Top Dose in Sheep with no Elevation of Plasma Potassium: 300 µM

## N=C(NCCCCc1ccc(C[C@H](NCCCN(C[C@H](O)[C@@H](O)[C@H](O)[C@H](O)CO)C[C@H](O)[C@@H](O)[C@H](O)[C@H](O)CO)C(N)=O)c2ccccc12)NC(=O)c1nc(Cl)c(N)nc1N [VII-ee, 3,5-diamino-N—(N-(4-(4-((S)-3-amino-2-(3-(bis((2S,3R,4R,5R)-2,3,4,5,6-pentahydroxyhexyl)amino)propylamino)-3-oxopropyl)naphthalen-1-yl)butyl)carbamimidoyl)-6-chloropyrazine-2-carboxamide]
[1]; [5]
  % of Apical Mass as Metabolites (2 h): None
  % of Initial Apical Mass on Basolateral Side (2 h): 6.4 ± 2.1%
  % on Basolateral Side as Metabolites (2 h): None

## CCCCCCN(CCCN[C@@H](Cc1ccc(CCCCNC(=N)NC(=O)c2nc(Cl)c(N)nc2N)c2ccccc12)C(N)=O)C[C@H](O)[C@@H](O)[C@H](O)[C@H](O)CO [VIII-d, 3,5-diamino-N—(N-(4-(4-((S)-3-amino-2-(3-(hexyl((2S,3R,4R,5R)-2,3,4,5,6-pentahydroxyhexyl)amino)propylamino)-3-oxopropyl)naphthalen-1-yl)butyl)carbamimidoyl)-6-chloropyrazine-2-carboxamide]
[1]; [5]
  % of Apical Mass as Metabolites (2 h): None
  % of Initial Apical Mass on Basolateral Side (2 h): 2.0 ± 0.8%
  % on Basolateral Side as Metabolites (2 h): None
